The supplement of paper PMC10307832

Columns and labels:
Test in all cases: relative viability (nuclei count vs DMSO), 5 days (fraction); higher = more cells survive
[1] = compound: COc1cc2/c(=N/c3ccc(Br)cc3F)nc[nH]c2cc1OCC1CCN(C)CC1 [Vandetanib] + O=C(c1cc(Cc2n[nH]c(=O)c3ccccc23)ccc1F)N1CCN(C(=O)C2CC2)CC1 [Olaparib] (partner 8 µM)
How it was run: (§1)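 Nuclei were stained with Hoechst during a one-step fixation (final 0.05% Triton X-100, 1% formaldehyde, 1 ug/ml Hoechst) carried out 5 days after dosing, then counted on 4× images. The cells, lung cancer lines in 1536-well plates, had been dosed by pin tool the day after seeding with one drug alone or a fixed anchor-drug dose plus five library-drug doses (not always all listed) in √10 steps. Relative viability is the nuclei count in treated wells divided by that in vehicle wells, and each value is the median of duplicate plates.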

[2] = compound: COc1cc2/c(=N/c3ccc(Br)cc3F)nc[nH]c2cc1OCC1CCN(C)CC1 [Vandetanib] + N=C(N)NC(=N)NCCc1ccccc1 [Phenformin] (partner 250 µM)
How it was run: as §1

[3] = compound: C1=CC=C2C(=C1)N=C(S2)C(C#N)C3=NC(=NC=C3)NCCC4=CN=CC=C4 + COc1cccc2cc(-c3nc([C@H]4CC[C@H](C(=O)O)CC4)n4ncnc(N)c34)[nH]c12 [OSI-027] (partner 0.5 µM)
How it was run: as §1

[4] = compound: COc1cc2/c(=N/c3ccc(Br)cc3F)nc[nH]c2cc1OCC1CCN(C)CC1 [Vandetanib] + Cc1nc(NC(=O)N2CCC[C@H]2C(N)=O)sc1-c1ccnc(C(C)(C)C(F)(F)F)c1 [Alpelisib] (partner 2 µM)
How it was run: as §1

| Cell Line | relative viability ([1]; first compound 0.02 µM) | relative viability ([1]; first compound 0.06325 µM) | relative viability ([1]; first compound 0.2 µM) | relative viability ([1]; first compound 0.6325 µM) | relative viability ([1]; first compound 2 µM) | relative viability ([2]; first compound 0.02 µM) | relative viability ([2]; first compound 0.06325 µM) | relative viability ([2]; first compound 0.2 µM) | relative viability ([2]; first compound 0.6325 µM) | relative viability ([2]; first compound 2 µM) | relative viability ([3]; first compound 0.005 µM) | relative viability ([3]; first compound 0.01581 µM) | relative viability ([3]; first compound 0.05 µM) | relative viability ([3]; first compound 0.1581 µM) | relative viability ([3]; first compound 0.5 µM) | relative viability ([4]; first compound 0.02 µM) | relative viability ([4]; first compound 0.06325 µM) | relative viability ([4]; first compound 0.2 µM) | relative viability ([4]; first compound 0.6325 µM) | relative viability ([4]; first compound 2 µM) |
| --- | --- | --- | --- | --- | --- | --- | --- | --- | --- | --- | --- | --- | --- | --- | --- | --- | --- | --- | --- | --- |
| NCI-H2087 | 0.497 | 0.567 | 0.644 | 0.613 | 0.639 | 0.415 | 0.45 | 0.457 | 0.447 | 0.44 | 0.557 | 0.629 | 0.495 | 0.548 | 0.483 | 0.953 | 1.17 | 1.28 | 1.04 | 1.07 |
| NCI-H1395 | 0.511 | 0.487 | 0.442 | 0.523 | 0.494 | 0.472 | 0.429 | 0.427 | 0.439 | 0.458 | 0.606 | 0.515 | 0.569 | 0.843 | 0.658 | 1.03 | 1.28 | 1.22 | 1.04 | 0.998 |
| COR-L 105 | 0.639 | 0.606 | 0.756 | 0.67 | 0.811 | 0.535 | 0.483 | 0.449 | 0.292 | 0.294 | 0.576 | 0.556 | 0.71 | 0.768 | 0.547 | 1.04 | 0.864 | 0.998 | 0.932 | 0.425 |
| CAL-12T | 0.663 | 0.692 | 0.765 | 0.676 | 0.65 | 0.536 | 0.539 | 0.446 | 0.411 | 0.242 | 0.811 | 0.536 | 0.525 | 0.534 | 0.427 | 0.993 | 0.956 | 1.44 | 1.26 | 0.73 |
| A-427 | 0.735 | 0.852 | 0.71 | 0.711 | 0.694 | 0.297 | 0.303 | 0.274 | 0.253 | 0.22 | 0.481 | 0.467 | 0.442 | 0.475 | 0.39 | 0.951 | 1.01 | 1.11 | 1.06 | 1.1 |
| NCI-H1975 | 0.807 | 0.733 | 0.795 | 0.684 | 0.716 | 0.391 | 0.398 | 0.391 | 0.389 | 0.403 | 0.511 | 0.819 | 0.613 | 0.811 | 0.283 | 0.583 | 0.573 | 0.597 | 0.63 | 0.477 |
| NCI-H1993 | 1.06 | 0.977 | 1.16 | 0.911 | 0.893 | 0.523 | 0.506 | 0.554 | 0.605 | 0.53 | 0.579 | 0.555 | 0.637 | 0.626 | 0.585 | 0.668 | 0.706 | 0.648 | 0.582 | 0.703 |
| NCI-H2023 | 0.464 | 0.473 | 0.484 | 0.466 | 0.479 | 0.399 | 0.402 | 0.354 | 0.323 | 0.328 | 0.285 | 0.418 | 0.31 | 0.355 | 0.275 | 0.568 | 0.49 | 0.732 | 0.524 | 0.486 |
